Test results published in PMC9848270, “Synthesis and biological assessment of indole derivatives containing penta-heterocycles scaffold as novel anticancer agents towards A549 and K562 cells” (Journal of Enzyme Inhibition and Medicinal Chemistry, 2023).

Assays:
[1] = tested on: human liver cancer cells (HepG2); test: MTT antiproliferative assay, HepG2; assay type: cell-based; conditions: for inhibition at 10 µM: read-out: Inhibition rate, HepG2; for IC50: MTT assay, 48 h, read-out: In vitro cytotoxicity IC50, HepG2
Protocol: (§1) A549, PC-3, HepG2 and K562 cells were purchased from the Kunming cell bank of the Chinese academy of sciences. All cell lines were cultured in DMEM or RPMI 1640 complete medium. Logarithmic growth cells were cultured in 96-well plates at a concentration of 10^4 cells per well and pre-cultured for 24 h before adding test compounds. The MTT test with 5-Fluorouracil and Gefitinib as reference compounds were used to evaluate antiproliferative activity of target compounds in four human cancer line cells. For the estimation of the inhibition concentration (IC50), the Graph Pad Prism (GraphPad Software, San Diego, CA) was used.

[2] = tested on: human chronic myeloid leukaemia cells (K562); test: MTT antiproliferative assay, K562; assay type: cell-based; conditions: for inhibition at 10 µM: K562, 10 μM, read-out: Inhibition rate, K562; for IC50: K562, 48 h, MTT assay, 48 h, read-out: In vitro cytotoxicity IC50, K562
Protocol: as §1

[3] = tested on: human prostate cancer cells (PC-3); test: MTT antiproliferative assay, PC-3; assay type: cell-based; conditions: Homo sapiens; for IC50: 48 h, MTT assay, read-out: In vitro cytotoxicity IC50, PC-3; for inhibition at 10 µM: read-out: Inhibition rate, PC-3
Protocol: as §1

[4] = tested on: A549, PC-3, HepG2 and K562 cells; test: MTT antiproliferative assay, four cancer cell lines taken together; assay type: cell-based, human
Protocol: as §1

[5] = tested on: normal cell line (HEK293); test: MTT cytotoxicity, normal cell line HEK293; assay type: cell-based, human; conditions: Homo sapiens, HEK293; 10 μM; read-out: Inhibition rate, HEK293
[6] = MTT cytotoxicity, normal cell line HEK293; assay type: cell-based, human; conditions: human, HEK293 cells (normal cell line); MTT assay, 48 h; normal cell line; CC50; read-out: In vitro cytotoxicity IC50, HEK293
[7] = tested on: human non-small cell lung cancer cells (A549); test: MTT antiproliferative assay, A549; assay type: cell-based; conditions: for inhibition at 10 µM: A549, 10 μM, read-out: Inhibition rate, A549; for IC50: A549, 48 h, MTT assay, 48 h, read-out: In vitro cytotoxicity IC50, A549
Protocol: as §1

K562 cells [8] = test: Annexin V-FITC/PI apoptosis flow cytometry, K562; assay type: cell-based, human; parameters: total numbers of apoptotic cells, K562: dose or concentration left out as unconfirmed; conditions: 48 h
Protocol: (§2) Annexin-V/FITC assay, after the adherent cells grew stably in the 6-well plate, each group was reacted with different concentrations of compound solutions for 48 h. Then, cells were collected by trypsinization without EDTA, rinsed twice with PBS, followed by the Annexin V-FITC/PI apoptosis detection kit (Solarbio, Bei Jing, China) according to the kit instructions, flow cytometry by BD FACSCalibur instrument (American BD Company Shanghai Co., Ltd.).

A549 cells [9] = test: Cell cycle analysis (PI staining, flow cytometry), A549; assay type: cell-based, human; conditions: 4 µM, 48 h
Protocol: (§3) A549 or K562 cells were separately seeded at 4.0 × 10^5cells/well in six-well plates and incubated for 24 h until adherent. […] After treatment, the cells were collected, and washed twice with pre-cooled PBS and then fixed with ice-cold ethanol (70%), subsequently kept 4 °C for overnight. After washing twice with PBS, cells were incubated at 37 °C with 100 µ L RNase A for 30 min. After this, cells were incubated with 400 µL PI for 30 min at 4 °C. Finally, the cell cycle distribution of compound 10 b was analysed via the BD FACSCalibur flow cytometry (American BD Corporation Shanghai Co. Ltd.)

K562 cells [10] = test: Cell cycle analysis (PI staining, flow cytometry), K562; assay type: cell-based, human; conditions: 4 µM, 48 h
Protocol: as §3

A549 cells [11] = test: Annexin V-FITC/PI apoptosis flow cytometry, A549; assay type: cell-based, human; conditions: 4 µM, 48 h
Protocol: as §2

SMILES	melting point	inhibition at 10 µM [1]	IC50 [1]	inhibition at 10 µM [2]	IC50 [2]	IC50 [3]	inhibition at 10 µM [3]	antiproliferative activity in words [4]	inhibition at 10 µM [5]	IC50 at 48 h [6]	inhibition at 10 µM [7]	IC50 [7]	total numbers of apoptotic cells, K562 (K562 cells [8])	DNA contents of the live population, G0/G1 phase, A549 (A549 cells [9])	DNA contents of the live population, G2/M phase, A549 (A549 cells [9])	DNA contents of the live population, S phase, A549 (A549 cells [9])	DNA contents of the live population, G0/G1 phase, K562 (K562 cells [10])	DNA contents of the live population, G2/M phase, K562 (K562 cells [10])	DNA contents of the live population, S phase, K562 (K562 cells [10])	total numbers of apoptotic cells, A549 (A549 cells [11])
O=C(CSc1nnc(-c2ccccc2F)s1)Nc1cc(-c2c[nH]c3ccccc23)n[nH]1 [Compound 10g, N-(3-(1H-indol-3-yl)-1H-pyrazol-5-yl)-2-((5-(2-fluorophenyl)-1,3,4-thiadiazol-2-yl)thio)acetamide]		56.9 ± 9.69%	11.8 ± 2.02 µM	97.4 ± 0.838%	3.32 ± 0.09 µM	2.98 ± 0.28 µM	96.4 ± 2.21%	quite weak antiproliferative activity	68.1 ± 4.49%	10.1 ± 2.2 µM	55.2 ± 3.17%	14.2 ± 1.61 µM								
O=C(CSc1nnc(-c2ccccc2Br)s1)Nc1cc(-c2c[nH]c3ccccc23)n[nH]1 [Compound 10c, N-(3-(1H-indol-3-yl)-1H-pyrazol-5-yl)-2-((5–(2-bromophenyl)-1,3,4-thiadiazol-2-yl)thio)acetamide]		11.9 ± 2.21%	61.3 ± 17 µM	27.1 ± 1.87%	33.7 ± 3.54 µM	31.9 ± 18 µM	30.3 ± 12.6%	quite weak antiproliferative activity	33 ± 1.46%	63.7 ± 6.51 µM	24.3 ± 2.77%	18.8 ± 2.92 µM								
O=C(CSc1nnc(-c2ccccn2)s1)Nc1cc(-c2c[nH]c3ccccc23)n[nH]1 [Compound 10i, N-(3-(1H-indol-3-yl)-1H-pyrazol-5-yl)-2-((5-(pyridine-2-yl)-1,3,4-thiadiazol-2-yl)thio)acetamide]	226 to 228 °C	51.9 ± 5.57%	8.37 ± 2.29 µM	40.5 ± 6.54%	12.5 ± 2.46 µM	24.1 ± 5.07 µM	30.5 ± 9.1%		46.5 ± 7.5%	26.3 ± 1.63 µM	35.7 ± 2.75%	12 ± 1.46 µM								
O=c1[nH]cc(F)c(=O)[nH]1 [5-Fluorouracil, reference compound]		26.4 ± 0.513%	15 ± 3.87 µM	39.9 ± 6.44%	12.3 ± 2.5 µM	10.9 ± 3.4 µM	37 ± 6.18%		72.1 ± 3.71%	3.62 ± 0.25 µM	54.3 ± 1.07%	3.46 ± 0.45 µM	13.4%	46.87%	13.13%	34.63%	30.93%	16.07%	48.27%	28.3%

Second part, led by results:

melting point	SMILES	inhibition at 10 µM [1]	IC50 [1]	inhibition at 10 µM [2]	IC50 [2]	IC50 [3]	inhibition at 10 µM [3]	antiproliferative activity in words [4]	inhibition at 10 µM [5]	IC50 at 48 h [6]	inhibition at 10 µM [7]	IC50 [7]	total numbers of apoptotic cells, K562 (K562 cells [8])	DNA contents of the live population, G0/G1 phase, A549 (A549 cells [9])	DNA contents of the live population, G2/M phase, A549 (A549 cells [9])	DNA contents of the live population, S phase, A549 (A549 cells [9])	DNA contents of the live population, G0/G1 phase, K562 (K562 cells [10])	DNA contents of the live population, G2/M phase, K562 (K562 cells [10])	DNA contents of the live population, S phase, K562 (K562 cells [10])	total numbers of apoptotic cells, A549 (A549 cells [11])
208 to 210 °C	Nn1c(SCC(=O)Nc2cc(-c3c[nH]c4ccccc34)n[nH]2)nnc1-c1ccccn1 [Compound 11i, N-(3-(1H-indol-3-yl)-1H-pyrazol-5-yl)-2-((4-amino-5-(pyridine-2-yl)-4H-1,2,4-triazol-3-yl)thio)acetamide]	95.3 ± 3.04%	2.5 ± 1.44 µM	99.5 ± 0.155%	1.26 ± 0.24 µM	2.77 ± 0.91 µM	83.6 ± 5.66%		67.1 ± 2.18%	1.45 ± 0.22 µM	94.8 ± 1.91%	2.97 ± 0.83 µM								
136 to 138 °C	Nn1c(SCC(=O)Nc2cc(-c3c[nH]c4ccccc34)n[nH]2)nnc1-c1ccccc1Cl [Compound 11j, N-(3-(1H-indol-3-yl)-1H-pyrazol-5-yl)-2-((4-amino-5–(2-chlorophenyl)-4H-1,2,4-triazol-3-yl)thio)acetamide]	14.4 ± 0.686%	50.6 ± 4.69 µM	14.3 ± 0.525%	42.4 ± 3.6 µM	34.4 ± 2.57 µM	17.8 ± 2.85%		10.9 ± 7.59%	63 ± 0.87 µM	13.7 ± 1.49%	56.8 ± 5.27 µM								
270 to 272 °C	Nn1c(SCC(=O)Nc2cc(-c3c[nH]c4ccccc34)n[nH]2)nnc1-c1ccc(Br)cc1 [Compound 11m, N-(3-(1H-indol-3-yl)-1H-pyrazol-5-yl)-2-((4-amino-5–(4-bromophenyl)-4H-1,2,4-triazol-3-yl)thio)acetamide]	60.9 ± 7.02%	10.7 ± 5.21 µM	98.5 ± 0.434%	2.57 ± 0.43 µM	21.3 ± 2.75 µM	32.8 ± 6.5%		54.2 ± 5.97%	5.81 ± 0.88 µM	71.7 ± 5.61%	5.81 ± 0.69 µM								
214 to 215 °C	Nn1c(SCC(=O)Nc2cc(-c3c[nH]c4ccccc34)n[nH]2)nnc1-c1ccc(Cl)cc1 [Compound 11f, N-(3-(1H-indol-3-yl)-1H-pyrazol-5-yl)-2-((4-amino-5–(4-chlorophenyl)-4H-1,2,4-triazol-3-yl)thio)acetamide]	46.9 ± 6.62%	9.04 ± 0.93 µM	25 ± 3.24%	32.3 ± 4.05 µM	19.1 ± 8.43 µM	28.9 ± 3.01%		40.1 ± 2.19%	18.1 ± 3.14 µM	32.8 ± 4.22%	11.8 ± 3 µM								
194 to 195 °C	Nn1c(SCC(=O)Nc2cc(-c3c[nH]c4ccccc34)n[nH]2)nnc1-c1ccccc1Br [Compound 11c, N-(3-(1H-indol-3-yl)-1H-pyrazol-5-yl)-2-((4-amino-5–(2-bromophenyl)-4H-1,2,4-triazol-3-yl)thio)acetamide]	10.4 ± 1.73%	74.7 ± 13.4 µM	14.9 ± 1.32%	43.4 ± 1.96 µM	60.8 ± 4.73 µM	12.3 ± 2.04%		1.73 ± 2.31%	75.4 ± 2.35 µM	10.5 ± 0.521%	67.7 ± 1.35 µM								
> 300 °C	Nn1c(SCC(=O)Nc2cc(-c3c[nH]c4ccccc34)n[nH]2)nnc1-c1ccccc1 [Compound 11k, N-(3-(1H-indol-3-yl)-1H-pyrazol-5-yl)-2-((4-amino-5-phenyl-4H-1,2,4-triazol-3-yl)thio)acetamide]	11.1 ± 0.757%	73.1 ± 8.07 µM	19.2 ± 3.55%	39.7 ± 7.96 µM	25.4 ± 2.77 µM	23.1 ± 3.99%		0.497 ± 5.03%	23.6 ± 4.14 µM	23.2 ± 0.539%	23.9 ± 3.08 µM								
240 to 241 °C	Nn1c(Cc2ccc(Cl)cc2)nnc1SCC(=O)Nc1cc(-c2c[nH]c3ccccc23)n[nH]1 [Compound 11d, N-(3-(1H-indol-3-yl)-1H-pyrazol-5-yl)-2-((4-amino-5–(4-chlorobenzyl)-4H-1,2,4-triazol-3-yl)thio)acetamide]	16.3 ± 2.1%	49.6 ± 10.2 µM	95.4 ± 0.809%	3.51 ± 1.05 µM	8.42 ± 0.56 µM	56.2 ± 9.24%		63.4 ± 7.49%	11.6 ± 0.87 µM	87.4 ± 12.5%	4.79 ± 0.21 µM								
258 to 260 °C	Nn1c(SCC(=O)Nc2cc(-c3c[nH]c4ccccc34)n[nH]2)nnc1-c1cc(Cl)cc(Cl)c1 [Compound 11a, N-(3-(1H-indol-3-yl)-1H-pyrazol-5-yl)-2-((4-amino-5–(3,5-dichlorophenyl)-4H-1,2,4-triazol-3-yl)thio)acetamide]	19.3 ± 4.13%	40.3 ± 7.83 µM	95.6 ± 1.68%	3.64 ± 0.08 µM	7.66 ± 1.5 µM	79 ± 3.97%		58.5 ± 2.72%	16.8 ± 5.56 µM	32.9 ± 3.84%	27.3 ± 3.47 µM								
